One compound from publication PMC5218480 (PLoS ONE, 2017) can be followed below.

The experiment relates to MV-4-11 cells. Nature of the experiment: Gene expression microarray analysis (Affymetrix PrimeView) and GSEA. It counts as cell-based, human. Further details: RFU PODN (11730768_x_at) / Fold change /veh PODN (11730768_x_at) / RFU LINC00158 (11744669_a_at) / Fold change /veh LINC00158 (11744669_a_at) / RFU DUSP10 (11751237_a_at) / Fold change /veh DUSP10 (11751237_a_at) / RFU ID3 (11757404_x_at) / Fold change /veh ID3 (11757404_x_at) / RFU PLEKHG5 (11737974_s_at) / Fold change /veh PLEKHG5 (11737974_s_at) / RFU LRRC4B (11730491_at) / Fold change /veh LRRC4B (11730491_at) / RFU GIMAP4 (11747438_a_at) / Fold change /veh GIMAP4 (11747438_a_at) / RFU KRT8 (11758183_x_at) / Fold change /veh KRT8 (11758183_x_at) / RFU CNN1 (11734310_a_at) / Fold change /veh CNN1 (11734310_a_at) / RFU VPS37D (11726825_at) / Fold change /veh VPS37D (11726825_at) / RFU C10orf10 (11716522_x_at) / Fold change /veh C10orf10 (11716522_x_at) / RFU KIR2DL2 /// KIR2DL4 /// KIR2DL5A /// KIR2DL5B /// KIR2DS1 /// KIR2DS2 /// KIR2DS3 /// KIR2DS4 /// KIR3DL3 /// KIR3DL3 /// KIR3DS1 (11738374_at) / Fold change /veh KIR2DL2 /// KIR2DL4 /// KIR2DL5A /// KIR2DL5B /// KIR2DS1 /// KIR2DS2 /// KIR2DS3 /// KIR2DS4 /// KIR3DL3 /// KIR3DL3 /// KIR3DS1 (11738374_at) / RFU C1QL1 (11718748_at) / Fold change /veh C1QL1 (11718748_at) / RFU TMPRSS4 (11747572_a_at) / Fold change /veh TMPRSS4 (11747572_a_at) / RFU HAMP (11756126_x_at) / Fold change /veh HAMP (11756126_x_at) / RFU RNFT2 (11725882_a_at) / Fold change /veh RNFT2 (11725882_a_at) / RFU NR4A2 (11747474_a_at) / Fold change /veh NR4A2 (11747474_a_at) / RFU ABCC12 (11746883_a_at) / Fold change /veh ABCC12 (11746883_a_at) / RFU TMEM136 (11760407_x_at) / Fold change /veh TMEM136 (11760407_x_at) / RFU CLDN22 /// WWC2 (11732394_at) / Fold change /veh CLDN22 /// WWC2 (11732394_at) / RFU HLA-DPB1 (11760878_x_at) / Fold change /veh HLA-DPB1 (11760878_x_at) / RFU SPINT1 (11716480_a_at) / Fold change /veh SPINT1 (11716480_a_at) / RFU GAP43 (11754022_s_at) / Fold change /veh GAP43 (11754022_s_at) / RFU A4GNT (11735810_at) / Fold change /veh A4GNT (11735810_at) / RFU PRB3 (11715151_x_at) / Fold change /veh PRB3 (11715151_x_at) / RFU TUBB4B (11761932_at) / Fold change /veh TUBB4B (11761932_at) / RFU CAPN14 (11732068_a_at) / Fold change /veh CAPN14 (11732068_a_at) / RFU TMCC2 (11721928_a_at) / Fold change /veh TMCC2 (11721928_a_at) / RFU IRGQ (11745062_a_at) / Fold change /veh IRGQ (11745062_a_at) / RFU FAM174B (11720279_a_at) / Fold change /veh FAM174B (11720279_a_at) / RFU TMPRSS4 (11748680_a_at) / Fold change /veh TMPRSS4 (11748680_a_at) / RFU FAM212B (11763350_a_at) / Fold change /veh FAM212B (11763350_a_at) / RFU PLEKHG5 (11743358_a_at) / Fold change /veh PLEKHG5 (11743358_a_at) / RFU ZSCAN30 (11745921_a_at) / Fold change /veh ZSCAN30 (11745921_a_at) / RFU CMKLR1 (11741424_a_at) / Fold change /veh CMKLR1 (11741424_a_at) / RFU LOC101060620 /// MAPK8IP1 (11723275_at) / Fold change /veh LOC101060620 /// MAPK8IP1 (11723275_at) / RFU SPTSSB (11747773_x_at) / Fold change /veh SPTSSB (11747773_x_at) / RFU PRSS12 (11739890_at) / Fold change /veh PRSS12 (11739890_at) / RFU BIN1 (11741810_x_at) / Fold change /veh BIN1 (11741810_x_at) / RFU WNT11 (11732464_a_at) / Fold change /veh WNT11 (11732464_a_at) / RFU C10orf10 (11716521_a_at) / Fold change /veh C10orf10 (11716521_a_at) / RFU C5orf56 (11738089_at) / Fold change /veh C5orf56 (11738089_at) / RFU CYB561 (11721691_x_at) / Fold change /veh CYB561 (11721691_x_at) / RFU ANKRD19P (11752326_a_at) / Fold change /veh ANKRD19P (11752326_a_at) / RFU OR2T12 /// OR2T33 /// OR2T8 (11738714_s_at) / Fold change /veh OR2T12 /// OR2T33 /// OR2T8 (11738714_s_at) / RFU VCAN (11748164_a_at) / Fold change /veh VCAN (11748164_a_at) / RFU JSRP1 (11732532_at) / Fold change /veh JSRP1 (11732532_at) / RFU KRTAP10-11 (11738290_x_at) / Fold change /veh KRTAP10-11 (11738290_x_at) / RFU MYO3A (11730013_a_at) / Fold change /veh MYO3A (11730013_a_at) / RFU EBF3 (11725865_a_at) / Fold change /veh EBF3 (11725865_a_at) / RFU CAMK2N1 (11719241_x_at) / Fold change /veh CAMK2N1 (11719241_x_at) / RFU C5orf56 (11738088_a_at) / Fold change /veh C5orf56 (11738088_a_at) / RFU OLFML3 (11715873_a_at) / Fold change /veh OLFML3 (11715873_a_at) / RFU LOC100653217 /// NTM (11731650_a_at) / Fold change /veh LOC100653217 /// NTM (11731650_a_at) / RFU MAPK11 (11762145_a_at) / Fold change /veh MAPK11 (11762145_a_at) / RFU FIZ1 (11724087_x_at) / Fold change /veh FIZ1 (11724087_x_at) / RFU OASL (11726364_x_at) / Fold change /veh OASL (11726364_x_at) / RFU SOX15 (11748057_x_at) / Fold change /veh SOX15 (11748057_x_at) / RFU CD79A (11719716_a_at) / Fold change /veh CD79A (11719716_a_at) / RFU HIST1H1D (11736915_at) / Fold change /veh HIST1H1D (11736915_at) / RFU CASKIN2 (11723855_a_at) / Fold change /veh CASKIN2 (11723855_a_at) / RFU LOC730098 (11760151_x_at) / Fold change /veh LOC730098 (11760151_x_at) / RFU OR4N2 (11742367_at) / Fold change /veh OR4N2 (11742367_at) / RFU PRRT2 (11749266_a_at) / Fold change /veh PRRT2 (11749266_a_at) / RFU SNX32 (11753110_a_at) / Fold change /veh SNX32 (11753110_a_at) / RFU CDHR5 (11726645_a_at) / Fold change /veh CDHR5 (11726645_a_at) / RFU RCAN1 (11760418_a_at) / Fold change /veh RCAN1 (11760418_a_at) / RFU FAM167A (11723789_a_at) / Fold change /veh FAM167A (11723789_a_at) / RFU FAM26E (11764081_at) / Fold change /veh FAM26E (11764081_at) / RFU ISYNA1 (11749810_s_at) / Fold change /veh ISYNA1 (11749810_s_at) / RFU ACY1 (11761880_at) / Fold change /veh ACY1 (11761880_at) / RFU 11764098_at / Fold change /veh 11764098_at / RFU SAMD14 (11745864_x_at) / Fold change /veh SAMD14 (11745864_x_at) / RFU NPB (11741838_a_at) / Fold change /veh NPB (11741838_a_at) / RFU TMPRSS6 (11731388_a_at) / Fold change /veh TMPRSS6 (11731388_a_at) / RFU KRTAP10-2 (11738614_at) / Fold change /veh KRTAP10-2 (11738614_at) / RFU ARHGAP8 /// PRR5-ARHGAP8 (11727945_x_at) / Fold change /veh ARHGAP8 /// PRR5-ARHGAP8 (11727945_x_at) / RFU KRTAP5-7 /// NADSYN1 (11734609_at) / Fold change /veh KRTAP5-7 /// NADSYN1 (11734609_at) / RFU RASL12 (11751679_a_at) / Fold change /veh RASL12 (11751679_a_at) / RFU CDKN2B (11736163_a_at) / Fold change /veh CDKN2B (11736163_a_at) / RFU PRF1 (11729649_at) / Fold change /veh PRF1 (11729649_at) / RFU, ZNF638 /// ZNF638-IT1 / Fold change vs veh, ZNF638 /// ZNF638-IT1 / RFU, PANK3 / Fold change vs veh, PANK3 / RFU, SH3YL1 / Fold change vs veh, SH3YL1 / RFU, ZEB2 / Fold change vs veh, ZEB2 / RFU, NRIP1 / Fold change vs veh, NRIP1 / RFU, PTTG1IP / Fold change vs veh, PTTG1IP / RFU, CAPN2 / Fold change vs veh, CAPN2 / RFU, MED14 / Fold change vs veh, MED14 / RFU, SNORA58 / Fold change vs veh, SNORA58 / RFU, C1orf63 / Fold change vs veh, C1orf63 / RFU, LRRFIP1 / Fold change vs veh, LRRFIP1 / RFU, NDUFAF7 / Fold change vs veh, NDUFAF7 / RFU, SLC12A2 / Fold change vs veh, SLC12A2 / RFU, IBTK / Fold change vs veh, IBTK / RFU, ESF1 / Fold change vs veh, ESF1 / Fold change vs veh, TMEM50B / RFU, TAOK1 / Fold change vs veh, TAOK1 / RFU, ACBD3 / Fold change vs veh, ACBD3 / RFU, TMA16 / Fold change vs veh, TMA16 / RFU, RWDD3 / Fold change vs veh, RWDD3 / RFU, BCAT1 / Fold change vs veh, BCAT1 / RFU, EDEM3 / Fold change vs veh, EDEM3 / RFU, TMEM33 / Fold change vs veh, TMEM33 / RFU, WDR75 / Fold change vs veh, WDR75 / RFU, AHCTF1 / Fold change vs veh, AHCTF1 / RFU, TFRC / Fold change vs veh, TFRC / RFU, ZDHHC17 / Fold change vs veh, ZDHHC17 / RFU, NOM1 / Fold change vs veh, NOM1 / RFU, ARL8B / Fold change vs veh, ARL8B / RFU, ZBTB11 / Fold change vs veh, ZBTB11 / RFU, TAMM41 / Fold change vs veh, TAMM41 / RFU, KIAA1704 /// LOC100996395 / Fold change vs veh, KIAA1704 /// LOC100996395 / RFU, ING1 / Fold change vs veh, ING1 / RFU, TRMT61B / Fold change vs veh, TRMT61B / RFU, FUBP3 / Fold change vs veh, FUBP3 / RFU, TP53 / Fold change vs veh, TP53 / RFU, TNKS2 / Fold change vs veh, TNKS2 / RFU, ZFP14 / Fold change vs veh, ZFP14 / RFU, ACTR2 / Fold change vs veh, ACTR2 / RFU, PPP3R1 / Fold change vs veh, PPP3R1 / RFU, PIK3R1 / Fold change vs veh, PIK3R1 / RFU, HNRNPA1 / Fold change vs veh, HNRNPA1 / RFU, RNF170 / Fold change vs veh, RNF170 / RFU, ZNF28 / Fold change vs veh, ZNF28 / RFU, RNGTT / Fold change vs veh, RNGTT / RFU, OGT / Fold change vs veh, OGT / RFU, BRD1 / Fold change vs veh, BRD1 / RFU, MARS / Fold change vs veh, MARS / RFU, ZNF655 / Fold change vs veh, ZNF655 / RFU, FAHD1 / Fold change vs veh, FAHD1 / RFU, BDP1 / Fold change vs veh, BDP1 / RFU, LRRCC1 / Fold change vs veh, LRRCC1 / RFU, ARID1A / Fold change vs veh, ARID1A / RFU, ZNF146 / Fold change vs veh, ZNF146 / RFU, ZNF330 / Fold change vs veh, ZNF330 / RFU, GPN3 / Fold change vs veh, GPN3 / RFU, C9orf123 / Fold change vs veh, C9orf123 / RFU, N4BP2L2 / Fold change vs veh, N4BP2L2 / RFU, ARFIP1 / Fold change vs veh, ARFIP1 / RFU, FAM179B / Fold change vs veh, FAM179B / RFU, BCL10 / Fold change vs veh, BCL10 / RFU, UHRF1BP1L / Fold change vs veh, UHRF1BP1L / RFU, BET1 / Fold change vs veh, BET1 / RFU, CNOT2 / Fold change vs veh, CNOT2 / RFU, ZNF268 / Fold change vs veh, ZNF268 / Fold change vs veh, ZNF507 / RFU, DGCR2 / Fold change vs veh, DGCR2 / RFU, WDSUB1 / Fold change vs veh, WDSUB1 / Fold change vs veh, HSP90B1 /// MIR3652 / RFU, ADSS / Fold change vs veh, ADSS / RFU, GK / Fold change vs veh, GK / RFU, ZNF148 / Fold change vs veh, ZNF148 / RFU, TAF9 / Fold change vs veh, TAF9 / RFU, SLC1A5 / Fold change vs veh, SLC1A5 / RFU, SLMO2 / Fold change vs veh, SLMO2 / RFU, ABCC4 / Fold change vs veh, ABCC4 / RFU, LOC101060439 /// RAP1B / Fold change vs veh, LOC101060439 /// RAP1B / RFU, RFX7 / Fold change vs veh, RFX7 / RFU, GTPBP10 / Fold change vs veh, GTPBP10 / RFU, CNEP1R1 / Fold change vs veh, CNEP1R1 / RFU, BIVM-ERCC5 /// ERCC5 / Fold change vs veh, BIVM-ERCC5 /// ERCC5 / RFU, ILF3 / Fold change vs veh, ILF3 / RFU 11762660_at / Fold change /veh 11762660_at / RFU VCAN (11757783_s_at) / Fold change /veh VCAN (11757783_s_at) / RFU DDX43 (11728927_at) / Fold change /veh DDX43 (11728927_at) / RFU KRT8 (11758188_x_at) / Fold change /veh KRT8 (11758188_x_at) / RFU NKD1 (11759106_at) / Fold change /veh NKD1 (11759106_at) / RFU SRD5A1 (11742802_a_at) / Fold change /veh SRD5A1 (11742802_a_at) / RFU TPSAB1 /// TPSB2 (11721975_s_at) / Fold change /veh TPSAB1 /// TPSB2 (11721975_s_at) / RFU GSTM3 (11746129_a_at) / Fold change /veh GSTM3 (11746129_a_at) / RFU IL23R (11737362_x_at) / Fold change /veh IL23R (11737362_x_at) / RFU TMEM51 (11727254_a_at) / Fold change /veh TMEM51 (11727254_a_at) / RFU PIWIL2 (11732686_x_at) / Fold change /veh PIWIL2 (11732686_x_at) / RFU ORM1 (11744905_x_at) / Fold change /veh ORM1 (11744905_x_at) / RFU CCDC152 (11743942_at) / Fold change /veh CCDC152 (11743942_at) / RFU ECM1 (11717891_a_at) / Fold change /veh ECM1 (11717891_a_at) / RFU IL23R (11748794_a_at) / Fold change /veh IL23R (11748794_a_at) / RFU TNFAIP8L3 (11732012_x_at) / Fold change /veh TNFAIP8L3 (11732012_x_at) / RFU MBOAT4 (11741988_at) / Fold change /veh MBOAT4 (11741988_at) / RFU 11764193_at / Fold change /veh 11764193_at / RFU TMEM53 (11763286_at) / Fold change /veh TMEM53 (11763286_at) / RFU MAGEB2 (11727129_at) / Fold change /veh MAGEB2 (11727129_at) / RFU TMEM200A (11744735_a_at) / Fold change /veh TMEM200A (11744735_a_at) / RFU CCDC152 (11751479_a_at) / Fold change /veh CCDC152 (11751479_a_at) / RFU FAM211A (11726209_a_at) / Fold change /veh FAM211A (11726209_a_at) / RFU RGS16 (11746705_a_at) / Fold change /veh RGS16 (11746705_a_at) / RFU VCAN (11755009_s_at) / Fold change /veh VCAN (11755009_s_at) / RFU RHOB (11743442_s_at) / Fold change /veh RHOB (11743442_s_at) / RFU RGS16 (11720943_a_at) / Fold change /veh RGS16 (11720943_a_at) / RFU RGS16 (11720944_at) / Fold change /veh RGS16 (11720944_at) / RFU, VPS4B / Fold change vs veh, VPS4B / RFU, CREB1 / Fold change vs veh, CREB1 / RFU, DNAJC13 / Fold change vs veh, DNAJC13 / RFU, GNAQ / Fold change vs veh, GNAQ / RFU, CDK5R1 / Fold change vs veh, CDK5R1 / RFU, ZRANB3 / Fold change vs veh, ZRANB3 / RFU, CUL4A / Fold change vs veh, CUL4A / RFU, CCNY / Fold change vs veh, CCNY / RFU, UFL1 / Fold change vs veh, UFL1 / RFU, COG3 / Fold change vs veh, COG3 / RFU, DIAPH2 / Fold change vs veh, DIAPH2 / RFU, SKA2 / Fold change vs veh, SKA2 / RFU, AFF3 / Fold change vs veh, AFF3 / RFU, LMF1 / Fold change vs veh, LMF1 / RFU, IPO11 / Fold change vs veh, IPO11 / RFU, DFFB / Fold change vs veh, DFFB / RFU, FOXP1 / Fold change vs veh, FOXP1 / RFU, CARD8 / Fold change vs veh, CARD8 / RFU, STRN3 / Fold change vs veh, STRN3 / RFU, ADK / Fold change vs veh, ADK / RFU, RASSF2 / Fold change vs veh, RASSF2 / RFU, WIPF1 / Fold change vs veh, WIPF1 / RFU, LARP1B / Fold change vs veh, LARP1B / RFU, RASA1 / Fold change vs veh, RASA1 / RFU, RB1 / Fold change vs veh, RB1 / RFU, PPFIA1 / Fold change vs veh, PPFIA1 / RFU, MAT2A / Fold change vs veh, MAT2A / RFU, CCT5 / Fold change vs veh, CCT5 / RFU, WDR92 / Fold change vs veh, WDR92 / RFU, CUX1 / Fold change vs veh, CUX1 / RFU, TTC7A / Fold change vs veh, TTC7A / RFU, TMEM135 / Fold change vs veh, TMEM135 / RFU, DEPTOR / Fold change vs veh, DEPTOR / RFU, CPM / Fold change vs veh, CPM / RFU, DNAJB6 / Fold change vs veh, DNAJB6 / RFU, CACNA2D3 / Fold change vs veh, CACNA2D3 / RFU, DTX4 / Fold change vs veh, DTX4 / RFU, TFCP2 / Fold change vs veh, TFCP2 / RFU, GMCL1 /// GMCL1P1 / Fold change vs veh, GMCL1 /// GMCL1P1 / RFU, AEBP2 / Fold change vs veh, AEBP2 / RFU, SNHG1 /// SNORD22 /// SNORD25 /// SNORD26 /// SNORD27 /// SNORD28 /// SNORD29 /// SNORD31 / Fold change vs veh, SNHG1 /// SNORD22 /// SNORD25 /// SNORD26 /// SNORD27 /// SNORD28 /// SNORD29 /// SNORD31 / Fold change (Aza/veh), C12orf56 (ProbeSet 11735607_a_at) / Fold change (ACY-1035/veh), C12orf56 (ProbeSet 11735607_a_at) / Fold change (Aza/veh), FGFR1OP (ProbeSet 11751329_s_at) / Fold change (ACY-1035/veh), FGFR1OP (ProbeSet 11751329_s_at) / Fold change (Aza/veh), VPS36 (ProbeSet 11739960_a_at) / Fold change (ACY-1035/veh), VPS36 (ProbeSet 11739960_a_at) / RFU SYPL1 (11715823_x_at) / Fold change /veh SYPL1 (11715823_x_at) / RFU IGFBP7 (11715501_s_at) / Fold change /veh IGFBP7 (11715501_s_at) / RFU REEP3 (11722064_at) / Fold change /veh REEP3 (11722064_at) / RFU IGLL1 (11728026_x_at) / Fold change /veh IGLL1 (11728026_x_at): dose or concentration left out as unconfirmed. As to conditions: ProbeSet 11726661_s_at; LIST B.

On to `Nc1ccc(-c2cccs2)cc1NC(=O)c1ccc2c(c1)cc(C1CC1)n2CCN1CCOCC1` [ACY-1035], for which the “Fold change vs veh, GPN3” value was found to be 0.89.
